# Measured values taken from patent publication US8846933B2, “N-link hydroxamic acid derivatives useful as antibacterial agents” (Pfizer Inc., priority 2009, dated 2014).
# Legend:
# [1] = tested on: Escherichia coli EC-1: VOGEL, mouse virulent; assay: MIC determination (CLSI), strain EC-1; format: cell-based; details: strain EC-1, unit assumed
# Experimental: (§1) The in vitro antibacterial activity of compounds described in the Examples was evaluated by minimum inhibitory concentration (MIC) testing according to Clinical and Laboratory Standards Institute (CLSI, formerly NCCLS) guidelines. See: Clinical and Laboratory Standards Institute. Methods for Dilution Antimicrobial Susceptibility Tests for Bacteria that Grow Aerobically; Approved Standard-Seventh Edition. CLSI document M7-A7 [ISBN 1-56238-587-9]. Clinical and Laboratory Standards Institute, 940 West Valley Road, Suite 1400, Wayne, Pa. 19087-1898 USA, 2006; also Clinical and Laboratory Standards Institute. Performance Standards for Antimicrobial Susceptibility Testing; Eighteenth Informational Supplement. CLSI document M100-S18 [ISBN1-56238-653-0].Clinical and Laboratory Standards Institute.
# (§2) The following bacterial strains were used in these MIC determinations:
# 3) Escherichia coli EC-1: VOGEL, mouse virulent labeled as EC-1 in Tables 4 and 5;
# [2] = tested on: Pseudomonas aeruginosa UI-18: Wild-type (PA-7); assay: MIC determination (CLSI), strain PA-7; format: cell-based; details: strain PA-7, unit assumed
# Experimental: as §1, §2
# 1) Pseudomonas aeruginosa UI-18: Wild-type, labeled as PA-7 in Tables 4, and 5;
# [3] = generated in the same manner as in Table 4
SMILES,EC-1 (MIC) [1],PA-7 (MIC) [2],"EC-1 (MIC) [1, 3]","PA-7 (MIC) [2, 3]"
CC(CCn1ccc(-c2ccc(OCC3CCCO3)cc2)cc1=O)(C(=O)NO)S(C)(=O)=O (mixture of isomers) [Example 462],0.5 µg/mL,1 µg/mL,,
CC1CC(=O)Nc2ccc(-c3ccn(CCC(C)(C(=O)NO)S(C)(=O)=O)c(=O)c3)cc21 (mixture of isomers) [Example 484],> 64 µg/mL,> 64 µg/mL,,
"CC(CCn1ccc(-c2ccc(C(F)(F)CO)cc2)cc1=O)(C(=O)NO)S(C)(=O)=O (stereo not shown) [Example 69, 4-{4-[4-(1,1-difluoro-2-hydroxyethyl)phenyl]-2-oxopyridin-1(2H)-yl}-N-hydroxy-2-methyl-2-(methylsulfonyl)butanamide]",,,4 µg/mL,16 µg/mL
"CC(CCn1ccc(-c2ccc(O)c(F)c2)cc1=O)(C(=O)NO)S(C)(=O)=O (stereo not shown) [Example 70, 4-[4-(3-fluoro-4-hydroxyphenyl)-2-oxopyridin-1(2H)-yl]-N-hydroxy-2-methyl-2-(methylsulfonyl)butanamide]",,,> 64 µg/mL,> 64 µg/mL
"CC(CCn1ccc(-c2ccc(OCCCN3CCOCC3)cc2)cc1=O)(C(=O)NO)S(C)(=O)=O (stereo not shown) [Example 71, N-hydroxy-2-methyl-2-(methylsulfonyl)-4-{4-[4-(3-morpholin-4-ylpropoxy)phenyl]-2-oxopyridin-1(2H)-yl}butanamide]",,,2 µg/mL,4 µg/mL
"CC(CCn1ccc(-c2ccc(CO)cc2)cc1=O)(C(=O)NO)S(C)(=O)=O (stereo not shown) [Example 72, N-hydroxy-4-{4-[4-(hydroxymethyl)phenyl]-2-oxopyridin-1(2H)-yl}-2-methyl-2-(methylsulfonyl)butanamide]",,,> 64 µg/mL,16 µg/mL
"CC(CCn1ccc(-c2ccc(C(=O)CO)cc2)cc1=O)(C(=O)NO)S(C)(=O)=O (stereo not shown) [Example 73, 4-[4-(4-glycoloylphenyl)-2-oxopyridin-1(2H)-yl]-N-hydroxy-2-methyl-2-(methylsulfonyl)butanamide]",,,> 64 µg/mL,64 µg/mL
CC(CCn1ccc(-c2ccc(OCCN3CCCC3)cc2)cc1=O)(C(=O)NO)S(C)(=O)=O (stereo not shown) [Example 74],,,> 64 µg/mL,> 64 µg/mL
"CC(CCn1ccc(-c2ccc(OCCCCO)cc2)cc1=O)(C(=O)NO)S(C)(=O)=O (stereo not shown) [Example 75, N-hydroxy-4-{4-[4-(4-hydroxybutoxy)phenyl]-2-oxopyridin-1(2H)-yl}-2-methyl-2-(methylsulfonyl)butanamide]",,,2 µg/mL,4 µg/mL
"CC(CCn1ccc(-c2ccc(OCCO)c(F)c2)cc1=O)(C(=O)NO)S(C)(=O)=O (stereo not shown) [Example 76, 4-{4-[3-fluoro-4-(2-hydroxyethoxy)phenyl]-2-oxopyridin-1(2H)-yl}-N-hydroxy-2-methyl-2-(methylsulfonyl)butanamide]",,,16 µg/mL,32 µg/mL
CC(CCn1ccc(-c2ccc(OCCCN3CCCCC3)cc2)cc1=O)(C(=O)NO)S(C)(=O)=O (stereo not shown) [Example 77],,,64 µg/mL,64 µg/mL
CC(CCn1ccc(-c2ccc(OCCCN3CCCC3)cc2)cc1=O)(C(=O)NO)S(C)(=O)=O (stereo not shown) [Example 78],,,> 64 µg/mL,> 64 µg/mL
CC(CCn1ccc(-c2ccc3[nH]ccc3c2)cc1=O)(C(=O)NO)S(C)(=O)=O (stereo not shown) [Example 79],,,4 µg/mL,4 µg/mL
"C/C(=N\O)c1ccc(-c2ccn(CCC(C)(C(=O)NO)S(C)(=O)=O)c(=O)c2)cc1 (stereo not shown) [Example 80, N-hydroxy-4-[4-{4-[(1E)-N-hydroxyethanimidoyl]phenyl}-2-oxopyridin-1(2H)-yl]-2-methyl-2-(methylsulfonyl)butanamide]",,,8 µg/mL,32 µg/mL
"CC(CCn1ccc(-c2ccc(OCCCN3CCSCC3)cc2)cc1=O)(C(=O)NO)S(C)(=O)=O (stereo not shown) [Example 81, N-hydroxy-2-methyl-2-(methylsulfonyl)-4-{2-oxo-4-[4-(3-thiomorpholin-4-ylpropoxy)phenyl]pyridin-1(2H)-yl}butanamide]",,,2 µg/mL,4 µg/mL
"CC(CCn1ccc(-c2ccc(OCCCN3CCS(=O)(=O)CC3)cc2)cc1=O)(C(=O)NO)S(C)(=O)=O (stereo not shown) [Example 82, 4-[4-{4-[3-(1,1-dioxidothiomorpholin-4-yl)propoxy]phenyl}-2-oxopyridin-1(2H)-yl]-N-hydroxy-2-methyl-2-(methylsulfonyl)butanamide]",,,8 µg/mL,32 µg/mL
"CC(CCn1ccc(-c2ccc(OCCCN3CCC(O)CC3)cc2)cc1=O)(C(=O)NO)S(C)(=O)=O (stereo not shown) [Example 83, N-hydroxy-4-[4-{4-[3-(4-hydroxypiperidin-1-yl)propoxy]phenyl}-2-oxopyridin-1(2H)-yl]-2-methyl-2-(methylsulfonyl)butanamide]",,,32 µg/mL,16 µg/mL
"CC(CCn1ccc(-c2ccc(OCCCN3CC(O)C3)cc2)cc1=O)(C(=O)NO)S(C)(=O)=O (stereo not shown) [Example 84, N-hydroxy-4-[4-{4-[3-(3-hydroxyazetidin-1-yl)propoxy]phenyl}-2-oxopyridin-1(2H)-yl]-2-methyl-2-(methylsulfonyl)butanamide]",,,> 64 µg/mL,32 µg/mL

SMILES,EC-1 (MIC) [1],PA-7 (MIC) [2],"EC-1 (MIC) [1, 3]","PA-7 (MIC) [2, 3]"
"CC(CCn1ccc(-c2ccc(OCCO)cc2F)cc1=O)(C(=O)NO)S(C)(=O)=O (stereo not shown) [Example 85, 4-{4-[2-fluoro-4-(2-hydroxyethoxy)phenyl]-2-oxopyridin-1(2H)-yl}-N-hydroxy-2-methyl-2-(methylsulfonyl)butanamide]",,,16 µg/mL,16 µg/mL
"CC(CCn1ccc(-c2ccc(OCCCN3CCNC(=O)C3)cc2)cc1=O)(C(=O)NO)S(C)(=O)=O (stereo not shown) [Example 86, N-hydroxy-2-methyl-2-(methylsulfonyl)-4-[2-oxo-4-{4-[3-(3-oxopiperazin-1-yl)propoxy]phenyl}pyridin-1(2H)-yl]butanamide]",,,16 µg/mL,32 µg/mL
CN1CCN(CCCOc2ccc(-c3ccn(CCC(C)(C(=O)NO)S(C)(=O)=O)c(=O)c3)cc2)CC1 (stereo not shown) [Example 87],,,64 µg/mL,32 µg/mL
CC(CCn1ccc(-c2ccc(OCCCc3cccnc3)cc2)cc1=O)(C(=O)NO)S(C)(=O)=O (stereo not shown) [Example 88],,,0.25 µg/mL,2 µg/mL
CC(CCn1ccc(-c2ccc(OCCCc3ccncc3)cc2)cc1=O)(C(=O)NO)S(C)(=O)=O (stereo not shown) [Example 89],,,0.25 µg/mL,2 µg/mL
COc1cccc(-c2ccn(CCC(C)(C(=O)NO)S(C)(=O)=O)c(=O)c2)c1F (stereo not shown) [Example 90],,,0.5 µg/mL,2 µg/mL
CC(CCn1ccc(-c2cc3ccccc3[nH]2)cc1=O)(C(=O)NO)S(C)(=O)=O (stereo not shown) [Example 91],,,4 µg/mL,16 µg/mL
"CC(CCn1ccc(-c2ccc(OCCCn3cncn3)cc2)cc1=O)(C(=O)NO)S(C)(=O)=O (stereo not shown) [Example 92, N-hydroxy-2-methyl-2-(methylsulfonyl)-4-[2-oxo-4-{4-[3-(1H-1,2,4-triazol-1-yl)propoxy]phenyl}pyridin-1(2H)-yl]butanamide]",,,8 µg/mL,16 µg/mL
"CC(CCn1ccc(-c2ccc(OCCCN3CCC(F)(F)C3)cc2)cc1=O)(C(=O)NO)S(C)(=O)=O (stereo not shown) [Example 93, 4-[4-{4-[3-(3,3-difluoropyrrolidin-1-yl)propoxy]phenyl}-2-oxopyridin-1(2H)-yl]-N-hydroxy-2-methyl-2-(methylsulfonyl)butanamide]",,,1 µg/mL,8 µg/mL
CC(CCn1ccc(-c2ccc(OCCN3CCOCC3)cc2)cc1=O)(C(=O)NO)S(C)(=O)=O (stereo not shown) [Example 94],,,2 µg/mL,4 µg/mL
"CC(CCn1ccc(-c2ccc(-c3cc(CO)no3)cc2)cc1=O)(C(=O)NO)S(C)(=O)=O (stereo not shown) [Example 95, N-hydroxy-4-[4-{4-[3-(hydroxymethyl)isoxazol-5-yl]phenyl}-2-oxopyridin-1(2H)-yl]-2-methyl-2-(methylsulfonyl)butanamide]",,,8 µg/mL,8 µg/mL
CC(CCn1ccc(-c2cccc(O)c2F)cc1=O)(C(=O)NO)S(C)(=O)=O (stereo not shown) [Example 96],,,64 µg/mL,> 64 µg/mL
"CC(CCn1ccc(-c2ccc(O)cc2)cc1=O)(C(=O)NO)S(C)(=O)=O (stereo not shown) [Example 97, N-hydroxy-4-[4-(4-hydroxyphenyl)-2-oxopyridin-1(2H)-yl]-2-methyl-2-(methylsulfonyl)butanamide]",,,> 64 µg/mL,> 64 µg/mL
"CC(CCn1ccc(-c2ccccc2)cc1=O)(C(=O)NO)S(C)(=O)=O (stereo not shown) [Example 98, N-hydroxy-2-methyl-2-(methylsulfonyl)-4-(2-oxo-4-phenylpyridin-1(2H)-yl)butanamide]",,,64 µg/mL,32 µg/mL
"CC(=O)c1ccc(-c2ccn(CCC(C)(C(=O)NO)S(C)(=O)=O)c(=O)c2)cc1O (stereo not shown) [Example 99, 4-[4-(4-acetyl-3-hydroxyphenyl)-2-oxopyridin-1(2H)-yl]-N-hydroxy-2-methyl-2-(methylsulfonyl)butanamide]",,,8 µg/mL,16 µg/mL
"CC(CCn1ccc(-c2ccc(OCCCN3CCCC(F)(F)C3)cc2)cc1=O)(C(=O)NO)S(C)(=O)=O (stereo not shown) [Example 100, 4-[4-{4-[3-(3,3-difluoropiperidin-1-yl)propoxy]phenyl}-2-oxopyridin-1(2H)-yl]-N-hydroxy-2-methyl-2-(methylsulfonyl)butanamide]",,,1 µg/mL,8 µg/mL
"CC(CCn1ccc(-c2ccc([N+](=O)[O-])cc2)cc1=O)(C(=O)NO)S(C)(=O)=O (stereo not shown) [Example 101, N-hydroxy-2-methyl-2-(methylsulfonyl)-4-[4-(4-nitrophenyl)-2-oxopyridin-1(2H)-yl]butanamide]",,,8 µg/mL,4 µg/mL
